The assay concerns the target T1, CYP126A1 (Mycobacterium tuberculosis, UniProt P9WPN9).
T1 construct: gene cyp126
The assay can be described thus: UV-visible absorbance titration (heme Soret shift). It is filed as binding.

SMILES strings stand for the structures.

T1 sequence (P9WPN9 whole entry): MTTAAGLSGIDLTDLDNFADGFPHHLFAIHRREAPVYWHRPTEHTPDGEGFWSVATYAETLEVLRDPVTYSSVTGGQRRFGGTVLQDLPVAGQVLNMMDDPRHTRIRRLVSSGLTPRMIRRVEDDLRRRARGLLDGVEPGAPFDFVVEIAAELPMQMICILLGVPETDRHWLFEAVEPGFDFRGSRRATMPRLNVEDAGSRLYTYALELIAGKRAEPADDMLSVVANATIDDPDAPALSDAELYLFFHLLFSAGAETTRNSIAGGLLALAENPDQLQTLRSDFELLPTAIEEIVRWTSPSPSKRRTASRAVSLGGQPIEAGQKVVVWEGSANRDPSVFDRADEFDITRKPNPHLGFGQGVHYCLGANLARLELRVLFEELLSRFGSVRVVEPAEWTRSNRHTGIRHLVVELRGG

Consider `Clc1ccc(COC(Cn2ccnc2)c2ccc(Cl)cc2Cl)cc1` (centres unmarked) [Econazole], for which the Kd is 4 ± 0.6 µM. Under `Cn1c(-c2ccc(-c3nc4ccccc4[nH]3)cc2)nc2cc(N)ccc21` [compound 8, Compound 8] stands 11 ± 0.6 µM; under `c1c[nH]cn1` [Imidazole], 2590 ± 60 µM; under `O=C(O)C1CSC(c2cc3ccccc3nc2Cl)N1` (centres unmarked) [compound 9, Compound 9], 16.4 ± 0.7 µM.

For the compound `Clc1ccc(COC(Cn2ccnc2)c2ccc(Cl)cc2Cl)c(Cl)c1` (centres unmarked) [Miconazole], the dissociation constant Kd worked out at 1.3 ± 0.2 µM.

As for `Clc1ccccc1C(c1ccccc1)(c1ccccc1)n1ccnc1` [Clotrimazole], the Kd came out at 3.9 ± 0.4 µM. As for `O=C(NCCCn1ccnc1)NC12CC3CC(CC(C3)C1)C2` [compound 7, Compound 7], the figure is 4.13 ± 0.61 µM; as for `CC(=O)N1CCN(c2ccc(OC[C@H]3CO[C@](Cn4ccnc4)(c4ccc(Cl)cc4Cl)O3)cc2)CC1` (racemic) [Ketoconazole], 0.34 ± 0.07 µM.

The record behind these values is publication PMC5270475, “Structural Characterization and Ligand/Inhibitor Identification Provide Functional Insights into the Mycobacterium tuberculosis Cytochrome P450 CYP126A1” (The Journal of Biological Chemistry, 2016).
